According to PubChem BioAssay AID1794807 (Yongcheng Song lab at Baylor College of Medicine, 2022):
Active and inactive are the calls of the source.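 How the source made its calls: active means half-maximal effective concentration EC50 under 50 µM in the live-cell XTT test; inactive means the rest.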

These molecules were tested on MV4;11 AML cells, XTT viability (assay: MV4,11 leukemia cell growth inhibition, dose response, XTT absorbance (AID 1794807)).

Q: `O=C(NCC1CCNCC1)c1cc2ccc(-c3ccc(N4CCCC4)cc3)cc2s1` was tested. Which EC50 did it give?
A: The EC50 was 8.7 µM.

Q: How did the EC50 turn out when `O=C(NCC1CCNCC1)c1coc2cc(-c3ccc(N4CCCCC4)cc3)ccc12` was run?
A: Its EC50 is 21 µM.

Q: Which EC50 does the source give for `NCc1ccc(-c2ccc3cc(C(=O)NCC4CCNCC4)oc3c2)cc1` here?
A: Its EC50 is 50 µM (inactive).

Q: With `O=C(NCC1CCNCC1)c1cc2cc(-c3cn[nH]c3)ccc2[nH]1` as the molecule, how does the EC50 read?
A: Its EC50 is > 50 µM (inactive).

Q: With `O=C(NCC1CCNCC1)c1cc2cc(-c3ccc(N4CCCCC4)cc3)ccc2[nH]1` as the molecule, how does the EC50 read?
A: Its EC50 is 22 µM.

Q: For `O=C(NCC1CCNCC1)c1cc2ccc(-c3ccc(N4CCCCC4)cc3)cc2s1`, which EC50 is on record?
A: Its EC50 is 9.6 µM.

Q: With `O=C(NCC1CCNCC1)c1c[nH]c2cc(-c3ccc(N4CCCC4)cc3)ccc12` as the molecule, how does the EC50 read?
A: The EC50 was 26 µM.

Q: How did the EC50 turn out when `O=C(NCC1CCNCC1)c1c[nH]c2cc(-c3ccc(N4CCCCC4)cc3)ccc12` was run?
A: The EC50 was 33 µM.

Q: Which EC50 does the source give for `NC(=O)c1ccc(-c2ccc3cc(C(=O)NCC4CCNCC4)sc3c2)cc1` here?
A: Its EC50 is > 50 µM (inactive).

Q: `O=C(NCC1CCNCC1)c1cc2cc(-c3ccc(N4CCCCC4)cc3)ccc2s1` was tested. Which EC50 did it give?
A: The EC50 was 8.2 µM.
